The source of these data is patent US10975081B2, “Substituted fused pyrazole compounds and their use as LRRK2 inhibitors” (GlaxoSmithKline Intellectual Property Development Limited, priority 2015, dated 2021).

Chain of LRRK2 Ser935 phosphorylation in SH-SY5Y cells over-expressing recombinant full length LRRK2 (Q5S007 whole entry): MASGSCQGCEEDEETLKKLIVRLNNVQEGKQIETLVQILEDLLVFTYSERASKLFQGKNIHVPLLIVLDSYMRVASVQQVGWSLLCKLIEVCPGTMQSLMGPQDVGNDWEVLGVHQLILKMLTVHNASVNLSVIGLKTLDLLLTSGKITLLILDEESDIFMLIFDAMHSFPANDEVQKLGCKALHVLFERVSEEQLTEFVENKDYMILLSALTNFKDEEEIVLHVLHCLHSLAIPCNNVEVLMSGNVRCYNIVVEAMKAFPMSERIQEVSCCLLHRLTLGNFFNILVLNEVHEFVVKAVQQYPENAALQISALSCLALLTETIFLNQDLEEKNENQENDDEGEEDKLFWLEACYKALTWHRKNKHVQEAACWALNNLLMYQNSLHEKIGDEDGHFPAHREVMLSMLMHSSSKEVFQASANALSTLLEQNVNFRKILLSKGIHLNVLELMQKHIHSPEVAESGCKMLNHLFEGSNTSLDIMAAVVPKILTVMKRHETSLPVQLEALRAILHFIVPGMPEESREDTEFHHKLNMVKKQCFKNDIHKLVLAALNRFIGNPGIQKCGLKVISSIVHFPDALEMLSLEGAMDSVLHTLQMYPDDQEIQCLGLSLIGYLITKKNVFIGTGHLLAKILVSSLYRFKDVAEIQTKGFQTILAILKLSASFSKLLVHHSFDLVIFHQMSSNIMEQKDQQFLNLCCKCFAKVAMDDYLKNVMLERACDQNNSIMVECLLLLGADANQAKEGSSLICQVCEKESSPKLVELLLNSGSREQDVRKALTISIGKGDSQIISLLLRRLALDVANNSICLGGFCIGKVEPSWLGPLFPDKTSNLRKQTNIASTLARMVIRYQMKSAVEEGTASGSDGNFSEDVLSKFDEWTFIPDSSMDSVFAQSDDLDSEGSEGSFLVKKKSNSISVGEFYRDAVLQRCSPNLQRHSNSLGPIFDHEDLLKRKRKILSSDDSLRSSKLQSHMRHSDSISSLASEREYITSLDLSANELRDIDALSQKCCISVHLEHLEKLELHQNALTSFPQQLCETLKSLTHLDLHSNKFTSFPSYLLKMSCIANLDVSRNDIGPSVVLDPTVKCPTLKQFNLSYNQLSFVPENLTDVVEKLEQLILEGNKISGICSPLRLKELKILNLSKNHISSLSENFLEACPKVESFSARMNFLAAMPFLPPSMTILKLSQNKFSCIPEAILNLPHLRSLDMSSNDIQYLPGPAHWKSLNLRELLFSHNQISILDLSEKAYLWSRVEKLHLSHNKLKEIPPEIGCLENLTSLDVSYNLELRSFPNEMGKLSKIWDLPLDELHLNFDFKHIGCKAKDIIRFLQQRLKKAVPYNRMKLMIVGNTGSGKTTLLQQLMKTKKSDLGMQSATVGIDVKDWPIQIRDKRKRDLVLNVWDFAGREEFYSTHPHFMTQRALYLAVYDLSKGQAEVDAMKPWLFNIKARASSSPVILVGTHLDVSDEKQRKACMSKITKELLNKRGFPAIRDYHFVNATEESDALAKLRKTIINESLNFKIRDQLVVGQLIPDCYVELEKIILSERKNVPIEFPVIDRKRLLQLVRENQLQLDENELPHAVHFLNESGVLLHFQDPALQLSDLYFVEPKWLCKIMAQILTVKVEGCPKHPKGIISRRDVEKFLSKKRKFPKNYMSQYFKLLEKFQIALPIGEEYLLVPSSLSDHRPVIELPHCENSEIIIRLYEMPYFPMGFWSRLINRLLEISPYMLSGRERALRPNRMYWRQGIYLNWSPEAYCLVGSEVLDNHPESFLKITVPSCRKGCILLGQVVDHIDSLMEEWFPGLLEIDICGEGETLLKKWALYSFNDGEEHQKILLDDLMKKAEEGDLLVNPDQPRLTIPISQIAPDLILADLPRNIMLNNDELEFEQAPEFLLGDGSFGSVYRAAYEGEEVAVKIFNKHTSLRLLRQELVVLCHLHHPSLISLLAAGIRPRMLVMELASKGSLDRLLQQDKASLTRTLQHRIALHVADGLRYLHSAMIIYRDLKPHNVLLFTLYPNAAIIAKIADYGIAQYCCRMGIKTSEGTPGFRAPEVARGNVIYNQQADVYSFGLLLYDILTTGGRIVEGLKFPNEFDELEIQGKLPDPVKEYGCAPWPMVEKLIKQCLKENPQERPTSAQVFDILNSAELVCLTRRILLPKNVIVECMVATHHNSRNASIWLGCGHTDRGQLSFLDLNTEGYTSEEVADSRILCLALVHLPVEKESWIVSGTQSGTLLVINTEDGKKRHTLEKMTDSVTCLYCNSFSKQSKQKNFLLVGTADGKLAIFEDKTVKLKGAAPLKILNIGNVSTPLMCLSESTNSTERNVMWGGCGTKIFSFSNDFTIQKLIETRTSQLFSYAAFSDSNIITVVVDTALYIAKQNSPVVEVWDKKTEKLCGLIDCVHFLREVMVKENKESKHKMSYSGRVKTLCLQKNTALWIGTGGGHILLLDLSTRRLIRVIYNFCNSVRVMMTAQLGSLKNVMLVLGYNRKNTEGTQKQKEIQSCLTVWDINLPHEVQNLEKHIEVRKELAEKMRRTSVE

In this assay the target is LRRK2 Ser935 phosphorylation in SH-SY5Y cells over-expressing recombinant full length LRRK2 (Homo sapiens (Human), UniProt Q5S007). Kind of assay: Recombinant cellular LRRK2 AlphaScreen assay. Format: cell-based. The conditions noted are these: 60 minutes, read-out: Recombinant cellular LRRK2 alphaScreen assay (pIC50) (converted). From the text:
To determine the activity of compounds against LRRK2 kinase activity in cells, the observed LRRK2 kinase-dependent modulation of LRRK2 Ser 935 phosphorylation (Dzamko et al., 2010, Biochem. J. 430: 405-413) was utilized to develop a quantitative 384 well plate-based immunoassay of LRRK2 Ser935 phosphorylation in the human neuroblastoma cell line SH-SY5Y, engineered to over-express recombinant full length LRRK2 protein.
A BacMam virus expressing full length recombinant LRRK2 was purchased from Invitrogen and amplified by inoculation of SF-9 cells at MOI 0.3 for 4-5 days in Sf-900 III SFM medium supplemented with 3% fetal bovine serum. Infected cell cultures were then centrifuged at 2000 g for 20 minutes, viral supernatant titer determined by anti-gp64 plaque assay and stored at 4° C.
Affinity-purified anti-phospho LRRK2 Ser935 sheep polyclonal antibody (Dzamko et al., 2010, Biochem. J. 430: 405-413) was biotinylated by standard methods (PerkinElmer). Anti-LRRK2 rabbit polyclonal antibody was purchased from Novus Biologicals. AlphaScreen Protein A IgG Kit (including acceptor and donor beads) was purchased from Perkin Elmer.
SH-SY5Y cells were grown in DMEM/F12 medium with 10% dialysed fetal bovine serum and harvested by treatment with 0.5% trypsin-EDTA for 5 minutes at 37° C. followed by centrifugation at 1000 rpm for 4 minutes. The cell pellet was resuspended in Opti-MEM reduced serum media (Invitrogen) at 200,000 cells/ml and mixed with the BacMam LRRK2 virus at M01=50. 50 μl cell solutions were then dispensed to each well of a 384-well plate and incubated at 37° C., 5% CO2 for 24 hours.
Serial dilutions of test compounds were prepared in Opti-MEM reduced serum media (Invitrogen) and 5.6 ul transferred from compound plate to cell assay plate to achieve a top final assay concentration of 10 uM. DMSO was used in certain wells as controls. Cells were incubated at 37° C., 5% CO2 for 60 minutes. The medium was then removed and cells lysed by addition of 20 ul cell lysis buffer (Cell Signaling Technology) and incubation at 4° C. for 20 minutes. 10 ul of antibody/acceptor bead mix [( 1/1000 biotinylated-pS935 LRRK2 antibody, 1/1000 total-LRRK2 antibody, 1/100 Acceptor beads in AlphaScreen detection buffer (25 mM Hepes (pH 7.4), 0.5% Triton X-100, 1 mg/ml Dextran 500 and 0.1% BSA)] was then added to each well and plates incubated for 2 hours at ambient temperature in the dark. 10 μl of donor beads solution (1/33.3 donor beads in AlphaScreen detection buffer) was then added to each well. Following incubation for a further 2 hours at ambient temperature in the dark, plates were read on an EnVision™ plate reader at emission 520-620 nm with excitation 680 nm. Dose response curve data was based on sigmoidal dose-response model.
(In Alpha technology, singlet oxygen from a donor bead excites a nearby acceptor bead.)
`CCOc1nc(N2CCOCC2)cc(-n2ncc3cc(C)c(C4CCN(C5COC5)CC4(F)F)cc32)n1` (single isomer, unassigned) [Example E24, 4-(6-(6-(3,3-Difluoro-1-(oxetan-3-yl)piperidin-4-yl)-5-methyl-1H-indazol-1-yl)-2-ethoxypyrimidin-4-yl)morpholine]: the IC50 is at most 0.1 µM.

Take `Cc1nc(-n2ncc3cc(C)c(C4CCN(C5COC5)CC4F)cc32)cc([C@H]2C[C@@H](O)C2)n1` (single isomer, unassigned) [Example E44, (cis)-(1s,3s)-3-(6-(6-(3-Fluoro-1-(oxetan-3-yl)piperidin-4-yl)-5-methyl-1H-indazol-1-yl)-2-methylpyrimidin-4-yl)cyclobutanol]: the IC50 is at most 0.1 µM. In the case of `Cc1cc2cnn(-c3cc(N4CCOCC4)nc(C#N)n3)c2cc1C1CCN(C)CC1(F)F` (single isomer, unassigned) [Example E9, 4-(6-(3,3-Difluoro-1-methylpiperidin-4-yl)-5-methyl-1H-indazol-1-yl)-6-morpholinopyrimidine-2-carbonitrile], the IC50 was over 10 µM. `CCN1CC[C@H](c2cc3c(cnn3-c3cc(N4CC(O)C4)nc(C)n3)cc2C)[C@H](F)C1` (single isomer, unassigned) [Example E146, (cis)-1-(6-(6-(1-Ethyl-3-fluoropiperidin-4-yl)-5-methyl-1H-indazol-1-yl)-2-methylpyrimidin-4-yl)azetidin-3-ol]: the IC50 is at most 0.1 µM. The value for `COc1nc(N2CC(O)C2)cc(-n2ncc3cc(C)c(C4CCN(C)C(=O)C4)cc32)n1` (single isomer, unassigned) [Example E87, 4-(1-(6-(3-Hydroxyazetidin-1-yl)-2-methoxypyrimidin-4-yl)-5-methyl-1H-indazol-6-yl)-1-methylpiperidin-2-one] was over 10 µM. The same measure for `Cc1nc(N2CC(O)C2)cc(-n2ncc3cc(C)c(C4CCOCC4F)cc32)n1` (single isomer, unassigned) [Example E246, 1-(6-(6-(3-Fluorotetrahydro-2H-pyran-4-yl)-5-methyl-1H-indazol-1-yl)-2-methylpyrimidin-4-yl)azetidin-3-ol]: at most 0.1 µM; for `Cc1cc2cnn(-c3cc(N4CC(O)C4)nc(C4CC4)n3)c2cc1[C@H]1CCN(C)C[C@H]1F` (single isomer, unassigned) [Example E46, (cis)-1-(2-Cyclopropyl-6-(6-(3-fluoro-1-methylpiperidin-4-yl)-5-methyl-1H-indazol-1-yl)pyrimidin-4-yl)azetidin-3-ol]: at most 0.1 µM; for `Cc1cc2cnn(-c3cc(N4CCOCC4)nc(OC(C)C)n3)c2cc1C1CCN(C)CC1(F)F` (single isomer, unassigned) [Example E7, 4-(6-(6-(3,3-Difluoro-1-methylpiperidin-4-yl)-5-methyl-1H-indazol-1-yl)-2-isopropoxypyrimidin-4-yl)morpholine]: over 10 µM. On to `Cc1nc(N2CC(O)C2)cc(-n2ncc3cc(C)c(C4CCCOC4)cc32)n1` (single isomer, unassigned) [Example E272, 1-(2-Methyl-6-(5-methyl-6-(tetrahydro-2H-pyran-3-yl)-1H-indazol-1-yl)pyrimidin-4-yl)azetidin-3-ol], for which the IC50 was over 10 µM. For `Cc1nc(N2CC(O)C2)cc(-n2ncc3cc(C)c(C4CN(C)CCO4)cc32)n1` (single isomer, unassigned) [Example E228, 1-(2-M ethyl-6-(5-methyl-6-(4-methylmorpholin-2-yl)-1H-indazol-1-yl)pyrimidin-4-yl)azetidin-3-ol], the IC50 was over 10 µM. For the molecule `COCCN1CCC(c2ncc3cnn(-c4ccnc(N5CCOCC5)c4)c3n2)C(F)C1` (single isomer, unassigned) [Example E76, (cis)-4-(4-(6-(3-Fluoro-1-(2-methoxyethyl)piperidin-4-yl)-1H-pyrazolo[3,4-d]pyrimidin-1-yl)pyridin-2-yl)morpholine], the IC50 is over 10 µM. The value for `COc1nc(N2CC(O)C2)cc(-n2ncc3cc(C)c([C@@H]4CN(C)C[C@@H]4F)cc32)n1` (single isomer, unassigned) [Example E74, (cis)-1-(6-(6-(4-Fluoro-1-methylpyrrolidin-3-yl)-5-methyl-1H-indazol-1-yl)-2-methoxypyrimidin-4-yl)azetidin-3-ol] was over 10 µM; that for `Cc1nc(N2CC(O)C2)cc(-n2ncc3cc(C)c(C4CCOCC4)cc32)n1` [Example E89, 1-(2-Methyl-6-(5-methyl-6-(tetrahydro-2H-pyran-4-yl)-1H-indazol-1-yl)pyrimidin-4-yl)azetidin-3-ol] was at most 0.1 µM.

For `Cc1nc(N2CCO[C@@H](CO)C2)cc(-n2ncc3cc(C)c(C4CCOCC4F)cc32)n1` (single isomer, unassigned) [Example E250], the IC50 is at most 0.1 µM. The value for `Cc1nc(N2CC(OCCO)C2)cc(-n2ncc3cc(C)c([C@H]4CCN(C)C[C@H]4F)cc32)n1` (single isomer, unassigned) [Example E132, (cis)-2-((1-(6-(6-(3-Fluoro-1-methylpiperidin-4-yl)-5-methyl-1H-indazol-1-yl)-2-methylpyrimidin-4-yl)azetidin-3-yl)oxy)ethanol] was at most 0.1 µM; that for `Cc1nc(N2CCOC(C(C)O)C2)cc(-n2ncc3cc(C)c(C4CCN(C5COC5)CC4)cc32)n1` (single isomer, unassigned) [Example E268, 1-(4-(2-Methyl-6-(5-methyl-6-(1-(oxetan-3-yl)piperidin-4-yl)-1H-indazol-1-yl)pyrimidin-4-yl)morpholin-2-yl)ethanol] was at most 0.1 µM; that for `COc1nc(N2CC(OCCO)C2)cc(-n2ncc3cc(C)c(C4CCOCC4)cc32)n1` [Example E237, 2-((1-(2-Methoxy-6-(5-methyl-6-(tetrahydro-2H-pyran-4-yl)-1H-indazol-1-yl)pyrimidin-4-yl)azetidin-3-yl)oxy)ethanol] was at most 0.1 µM. The value for `CNC(=O)[C@@H]1CN(c2cc(-n3ncc4cc(C)c(C5CCN(C6COC6)CC5F)cc43)ncn2)CCO1` (single isomer, unassigned) [Example E34] was at most 0.1 µM; that for `Cc1cc2cnn(-c3cc(N4CCOCC4)nc(OC(C)C)n3)c2cc1C1CCN(C2COC2)CC1(F)F` (single isomer, unassigned) [Example E25, 4-(6-(6-(3,3-Difluoro-1-(oxetan-3-yl)piperidin-4-yl)-5-methyl-1H-indazol-1-yl)-2-isopropoxypyrimidin-4-yl)morpholine] was over 10 µM; that for `Cc1nc(N2CC(O)C2)cc(-n2ncc3cc(Cl)c(N4CCC(O)CC4)cc32)n1` [Example E258, 1-(5-Chloro-1-(6-(3-hydroxyazetidin-1-yl)-2-methylpyrimidin-4-yl)-1H-indazol-6-yl)piperidin-4-ol] was at most 0.1 µM.

For the molecule `CNC(=O)[C@H]1CN(c2cc(-n3ncc4cc(C)c(C5CCN(CCOC)CC5F)cc43)ncn2)CCO1` (single isomer, unassigned) [Example E29], the IC50 was at most 0.1 µM. The same measure for `CCc1nc(N2CCOCC2)cc(-n2ncc3cc(C)c(C4CCN(C)CC4(F)F)cc32)n1` (single isomer, unassigned) [Example E11, 4-(6-(6-(3,3-Difluoro-1-methylpiperidin-4-yl)-5-methyl-1H-indazol-1-yl)-2-ethylpyrimidin-4-yl)morpholine]: over 10 µM; for `COc1nc(N2CC(O)C2)cc(-n2ncc3cc(C)c(C4(F)CCCN(C)C4)cc32)n1` (single isomer, unassigned) [Example E221, 1-(6-(6-(3-Fluoro-1-methylpiperidin-3-yl)-5-methyl-1H-indazol-1-yl)-2-methoxypyrimidin-4-yl)azetidin-3-ol]: over 10 µM; for `Cc1nc(N2CCO[C@@H](CO)C2)cc(-n2ncc3cc(C)c(C4CCCOC4)cc32)n1` (single isomer, unassigned) [Example E240]: over 10 µM. The same measure for `Cc1nc(N2CCO[C@@H](CO)C2)cc(-n2ncc3cc(C)c(C4CCCCO4)cc32)n1` (single isomer, unassigned) [Example E245]: over 10 µM; for `COc1nc(N2CC(O)C2)cc(-n2ncc3cc(C)c(C4CN(C)CCO4)cc32)n1` (single isomer, unassigned) [Example E229, 1-(2-Methoxy-6-(5-methyl-6-(4-methylmorpholin-2-yl)-1H-indazol-1-yl)pyrimidin-4-yl)azetidin-3-ol]: over 10 µM.
